The supplement of paper PMC12076712

How the values were obtained:
Assay in all cases: pIC50, kinobeads binding competition
UniProt P04629 = conditions: cell material: Lysate mix
Summary of the method: (§1)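 To obtain pIC50, fold changes versus vehicle were fitted to logistic dose-response curves (R drc package) across biological duplicates. Protein binding to Kinobeads was quantified by TMT10 LC-MS/MS of digested bead-bound proteins. Treatments used nine concentrations with a top of 30 μM, applied to live Jurkat cells in 1:4 steps for 60 min at 37 °C before lysis, or to Jurkat lysate or a 1:1:1:1 HEK293/K-562/HepG2/placenta lysate mix in 1:5 steps for 60 min at 4 °C.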

AAK1 = AAK1 (UniProt Q2M2I8)
Chain of AAK1 (Q2M2I8 whole entry, looked up): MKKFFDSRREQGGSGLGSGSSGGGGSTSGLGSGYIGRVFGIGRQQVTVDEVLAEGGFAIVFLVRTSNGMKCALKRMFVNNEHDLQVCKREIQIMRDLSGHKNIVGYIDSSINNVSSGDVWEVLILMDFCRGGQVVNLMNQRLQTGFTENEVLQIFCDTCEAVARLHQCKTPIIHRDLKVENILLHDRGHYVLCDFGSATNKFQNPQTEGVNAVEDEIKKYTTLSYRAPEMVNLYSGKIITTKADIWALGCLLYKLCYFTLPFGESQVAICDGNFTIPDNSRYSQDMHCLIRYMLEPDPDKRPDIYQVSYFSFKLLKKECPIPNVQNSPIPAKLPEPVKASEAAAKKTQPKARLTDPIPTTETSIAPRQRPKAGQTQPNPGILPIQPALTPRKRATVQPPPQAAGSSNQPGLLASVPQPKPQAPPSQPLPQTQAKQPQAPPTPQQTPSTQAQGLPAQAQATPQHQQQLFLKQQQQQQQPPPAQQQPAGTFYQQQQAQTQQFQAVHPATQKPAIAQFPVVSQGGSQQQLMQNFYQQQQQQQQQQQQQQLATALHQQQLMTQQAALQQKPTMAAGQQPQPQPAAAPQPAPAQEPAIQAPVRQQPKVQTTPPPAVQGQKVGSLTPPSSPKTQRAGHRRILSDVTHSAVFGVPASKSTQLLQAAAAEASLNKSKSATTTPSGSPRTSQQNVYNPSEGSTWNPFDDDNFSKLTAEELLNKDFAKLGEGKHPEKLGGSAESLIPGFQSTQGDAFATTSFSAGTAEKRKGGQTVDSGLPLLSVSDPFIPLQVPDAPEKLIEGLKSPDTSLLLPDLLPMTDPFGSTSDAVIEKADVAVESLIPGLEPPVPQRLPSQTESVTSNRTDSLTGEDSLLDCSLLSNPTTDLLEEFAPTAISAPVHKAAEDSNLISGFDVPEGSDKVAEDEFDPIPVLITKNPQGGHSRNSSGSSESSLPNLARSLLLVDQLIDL
Summary of the method: as §1

NLK = target: T1, NLK (UniProt Q9UBE8)
T1 sequence (whole entry): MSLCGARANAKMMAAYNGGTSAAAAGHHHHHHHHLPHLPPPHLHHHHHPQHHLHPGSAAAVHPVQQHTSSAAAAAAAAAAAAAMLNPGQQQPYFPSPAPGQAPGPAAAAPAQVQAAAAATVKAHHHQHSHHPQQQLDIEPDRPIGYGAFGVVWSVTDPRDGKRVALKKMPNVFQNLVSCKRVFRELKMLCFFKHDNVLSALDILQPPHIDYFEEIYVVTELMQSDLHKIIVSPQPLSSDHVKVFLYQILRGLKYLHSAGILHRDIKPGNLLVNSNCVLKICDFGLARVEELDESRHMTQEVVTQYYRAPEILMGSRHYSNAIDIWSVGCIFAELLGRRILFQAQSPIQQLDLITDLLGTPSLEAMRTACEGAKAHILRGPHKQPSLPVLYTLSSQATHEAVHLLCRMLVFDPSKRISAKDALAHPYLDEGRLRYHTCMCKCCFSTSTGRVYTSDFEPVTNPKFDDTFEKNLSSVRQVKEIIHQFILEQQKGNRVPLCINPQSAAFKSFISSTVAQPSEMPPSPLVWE
Summary of the method: as §1

ACVR1 = target: T2, ACVR1 (UniProt Q04771)
T2 sequence (whole entry): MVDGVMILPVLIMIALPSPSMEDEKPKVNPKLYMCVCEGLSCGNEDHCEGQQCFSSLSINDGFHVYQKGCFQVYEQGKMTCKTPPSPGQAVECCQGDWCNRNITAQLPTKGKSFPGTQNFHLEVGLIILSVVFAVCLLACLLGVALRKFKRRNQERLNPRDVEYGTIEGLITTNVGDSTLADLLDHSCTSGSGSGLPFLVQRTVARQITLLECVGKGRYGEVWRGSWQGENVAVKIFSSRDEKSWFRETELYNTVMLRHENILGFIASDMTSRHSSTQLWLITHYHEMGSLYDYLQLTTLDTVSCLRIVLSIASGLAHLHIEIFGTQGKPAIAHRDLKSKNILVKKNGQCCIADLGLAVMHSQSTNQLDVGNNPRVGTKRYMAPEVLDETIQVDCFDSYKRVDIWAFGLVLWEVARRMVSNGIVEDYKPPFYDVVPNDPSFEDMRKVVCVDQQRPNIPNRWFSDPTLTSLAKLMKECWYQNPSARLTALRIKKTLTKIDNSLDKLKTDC
Summary of the method: as §1

UniProt Q9Y5S2 = conditions: cell material: Lysate mix
Chain of UniProt Q9Y5S2 (Q9Y5S2 whole entry): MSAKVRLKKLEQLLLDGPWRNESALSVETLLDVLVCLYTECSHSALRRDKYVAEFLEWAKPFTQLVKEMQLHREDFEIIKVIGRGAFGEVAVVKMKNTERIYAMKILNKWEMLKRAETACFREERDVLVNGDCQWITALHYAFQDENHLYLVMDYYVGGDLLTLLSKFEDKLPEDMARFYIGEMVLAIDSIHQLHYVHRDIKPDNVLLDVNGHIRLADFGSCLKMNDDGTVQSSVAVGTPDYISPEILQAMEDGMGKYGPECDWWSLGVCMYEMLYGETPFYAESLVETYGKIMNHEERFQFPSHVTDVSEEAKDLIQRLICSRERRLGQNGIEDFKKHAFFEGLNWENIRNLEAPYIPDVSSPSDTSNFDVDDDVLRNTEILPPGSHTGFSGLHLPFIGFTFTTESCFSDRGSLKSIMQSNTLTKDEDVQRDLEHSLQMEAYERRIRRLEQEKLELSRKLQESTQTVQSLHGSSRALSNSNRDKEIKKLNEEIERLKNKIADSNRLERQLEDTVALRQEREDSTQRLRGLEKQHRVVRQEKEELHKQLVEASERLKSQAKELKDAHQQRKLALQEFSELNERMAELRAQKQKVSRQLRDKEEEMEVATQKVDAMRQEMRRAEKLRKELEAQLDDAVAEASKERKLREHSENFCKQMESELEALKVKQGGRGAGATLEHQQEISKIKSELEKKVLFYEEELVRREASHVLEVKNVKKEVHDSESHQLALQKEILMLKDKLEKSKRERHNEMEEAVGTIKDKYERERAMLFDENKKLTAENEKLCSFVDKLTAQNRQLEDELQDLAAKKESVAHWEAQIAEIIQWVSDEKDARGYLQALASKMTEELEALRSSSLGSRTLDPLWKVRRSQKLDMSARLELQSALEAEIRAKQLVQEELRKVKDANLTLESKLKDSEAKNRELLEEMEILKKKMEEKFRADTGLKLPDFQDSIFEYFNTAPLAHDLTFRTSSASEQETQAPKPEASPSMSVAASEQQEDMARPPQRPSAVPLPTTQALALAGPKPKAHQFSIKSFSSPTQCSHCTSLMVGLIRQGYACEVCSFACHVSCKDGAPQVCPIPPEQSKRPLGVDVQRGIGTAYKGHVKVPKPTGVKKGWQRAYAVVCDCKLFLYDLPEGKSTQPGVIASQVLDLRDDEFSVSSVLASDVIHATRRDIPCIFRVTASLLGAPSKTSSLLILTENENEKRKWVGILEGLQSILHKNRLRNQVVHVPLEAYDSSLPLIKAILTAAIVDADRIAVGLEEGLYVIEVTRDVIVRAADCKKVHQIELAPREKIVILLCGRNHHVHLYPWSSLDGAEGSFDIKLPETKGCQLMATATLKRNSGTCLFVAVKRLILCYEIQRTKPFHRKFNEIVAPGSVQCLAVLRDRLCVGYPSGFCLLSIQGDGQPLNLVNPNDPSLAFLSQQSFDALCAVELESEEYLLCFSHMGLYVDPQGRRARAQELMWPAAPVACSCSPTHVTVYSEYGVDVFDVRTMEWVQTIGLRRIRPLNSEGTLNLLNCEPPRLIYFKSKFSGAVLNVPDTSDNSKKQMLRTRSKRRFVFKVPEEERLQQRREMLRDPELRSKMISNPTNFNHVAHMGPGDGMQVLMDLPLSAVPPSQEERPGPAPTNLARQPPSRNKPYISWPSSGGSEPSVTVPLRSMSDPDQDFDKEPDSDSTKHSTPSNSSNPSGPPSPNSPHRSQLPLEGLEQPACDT
Summary of the method: as §1

UniProt O75460 = target: UniProt O75460
Chain of UniProt O75460 (O75460 whole entry, looked up): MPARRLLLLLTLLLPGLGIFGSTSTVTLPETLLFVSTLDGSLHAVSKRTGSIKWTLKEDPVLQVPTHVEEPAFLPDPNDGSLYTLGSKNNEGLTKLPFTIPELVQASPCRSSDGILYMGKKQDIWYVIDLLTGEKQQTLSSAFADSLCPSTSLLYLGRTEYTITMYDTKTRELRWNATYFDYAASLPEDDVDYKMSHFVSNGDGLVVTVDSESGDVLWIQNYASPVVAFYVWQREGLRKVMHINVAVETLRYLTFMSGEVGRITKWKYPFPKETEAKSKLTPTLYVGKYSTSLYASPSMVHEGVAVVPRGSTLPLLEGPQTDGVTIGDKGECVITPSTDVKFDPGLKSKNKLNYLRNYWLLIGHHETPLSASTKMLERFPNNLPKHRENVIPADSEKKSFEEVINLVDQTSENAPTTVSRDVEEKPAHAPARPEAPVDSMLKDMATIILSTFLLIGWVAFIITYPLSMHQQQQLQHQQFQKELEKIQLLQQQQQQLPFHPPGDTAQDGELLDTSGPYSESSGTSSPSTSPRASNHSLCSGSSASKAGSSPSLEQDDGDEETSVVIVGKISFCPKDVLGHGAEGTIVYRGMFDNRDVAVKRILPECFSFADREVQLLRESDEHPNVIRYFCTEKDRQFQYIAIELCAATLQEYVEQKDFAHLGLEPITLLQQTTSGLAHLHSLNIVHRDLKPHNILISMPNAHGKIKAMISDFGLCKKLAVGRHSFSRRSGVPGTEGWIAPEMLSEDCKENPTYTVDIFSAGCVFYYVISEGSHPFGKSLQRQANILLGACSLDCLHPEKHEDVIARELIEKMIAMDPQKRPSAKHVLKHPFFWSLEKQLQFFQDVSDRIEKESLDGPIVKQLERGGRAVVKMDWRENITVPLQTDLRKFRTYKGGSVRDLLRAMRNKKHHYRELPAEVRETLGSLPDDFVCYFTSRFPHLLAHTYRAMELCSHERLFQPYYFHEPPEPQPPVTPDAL
Summary of the method: as §1

UniProt O15111 = target: T3, UniProt O15111
T3 sequence (whole entry): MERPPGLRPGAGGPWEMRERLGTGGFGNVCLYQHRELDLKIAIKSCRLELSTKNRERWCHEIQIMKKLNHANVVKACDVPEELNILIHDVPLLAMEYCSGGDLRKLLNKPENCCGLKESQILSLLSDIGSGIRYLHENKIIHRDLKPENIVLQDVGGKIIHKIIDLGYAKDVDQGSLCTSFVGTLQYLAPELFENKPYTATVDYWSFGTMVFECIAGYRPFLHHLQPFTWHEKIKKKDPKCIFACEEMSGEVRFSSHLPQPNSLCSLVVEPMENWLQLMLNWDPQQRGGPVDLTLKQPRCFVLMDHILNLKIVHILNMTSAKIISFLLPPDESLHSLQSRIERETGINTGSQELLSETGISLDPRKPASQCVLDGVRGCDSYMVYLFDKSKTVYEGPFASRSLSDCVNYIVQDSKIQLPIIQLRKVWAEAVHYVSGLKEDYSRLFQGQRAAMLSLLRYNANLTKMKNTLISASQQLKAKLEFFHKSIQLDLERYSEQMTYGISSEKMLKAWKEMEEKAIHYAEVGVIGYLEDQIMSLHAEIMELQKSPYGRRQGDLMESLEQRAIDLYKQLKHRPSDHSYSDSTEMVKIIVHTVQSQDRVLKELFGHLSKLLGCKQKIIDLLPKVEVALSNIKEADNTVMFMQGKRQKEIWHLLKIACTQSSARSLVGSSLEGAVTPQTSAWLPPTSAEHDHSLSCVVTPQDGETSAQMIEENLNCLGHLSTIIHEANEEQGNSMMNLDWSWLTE
Summary of the method: as §1

Chain of UniProt P04629 (P04629 whole entry, looked up): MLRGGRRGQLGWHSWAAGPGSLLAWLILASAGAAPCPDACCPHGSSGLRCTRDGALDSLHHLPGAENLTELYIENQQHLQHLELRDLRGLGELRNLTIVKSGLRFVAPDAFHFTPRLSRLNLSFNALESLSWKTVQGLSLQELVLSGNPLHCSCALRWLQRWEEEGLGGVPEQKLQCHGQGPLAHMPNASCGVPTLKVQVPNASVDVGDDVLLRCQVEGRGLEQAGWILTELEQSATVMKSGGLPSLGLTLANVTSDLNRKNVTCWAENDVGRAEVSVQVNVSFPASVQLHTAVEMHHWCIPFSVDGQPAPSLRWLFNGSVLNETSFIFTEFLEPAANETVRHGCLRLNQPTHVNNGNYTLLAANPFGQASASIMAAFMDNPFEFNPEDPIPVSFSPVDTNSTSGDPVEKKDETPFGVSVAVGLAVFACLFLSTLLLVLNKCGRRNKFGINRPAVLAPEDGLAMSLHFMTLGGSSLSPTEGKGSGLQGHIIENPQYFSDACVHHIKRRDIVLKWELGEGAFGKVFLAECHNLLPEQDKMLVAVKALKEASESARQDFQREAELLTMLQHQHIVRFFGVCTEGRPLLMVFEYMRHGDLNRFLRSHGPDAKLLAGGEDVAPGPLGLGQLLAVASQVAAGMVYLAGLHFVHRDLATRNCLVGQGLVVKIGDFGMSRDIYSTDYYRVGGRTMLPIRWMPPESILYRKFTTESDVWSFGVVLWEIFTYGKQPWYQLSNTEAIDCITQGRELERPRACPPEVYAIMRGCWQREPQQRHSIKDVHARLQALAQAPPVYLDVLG

Row | SMILES | pIC50 (UniProt P04629) | pIC50 (AAK1; cell material: Lysate mix) | pIC50 (NLK; cell material: Lysate mix) | pIC50 (ACVR1; cell material: Lysate mix) | pIC50 (UniProt Q9Y5S2) | pIC50 (UniProt O75460; cell material: Lysate mix) | pIC50 (UniProt O15111; cell material: Lysate mix) | pIC50 (AAK1; cell material: Jurkat cells) | pIC50 (AAK1; cell material: Jurkat lysate) | pIC50 (NLK; cell material: Jurkat lysate) | pIC50 (ACVR1; cell material: Jurkat cells) | pIC50 (ACVR1; cell material: Jurkat lysate) | pIC50 (UniProt O75460; cell material: Jurkat cells) | pIC50 (UniProt O75460; cell material: Jurkat lysate) | pIC50 (UniProt O15111; cell material: Jurkat cells) | pIC50 (UniProt O15111; cell material: Jurkat lysate) | pIC50 (NLK; cell material: Jurkat cells)
1 | CCNC(=O)c1cc(Nc2cc(C)[nH]n2)nc(N2CCN(Cc3ccc(S(=O)(=O)F)cc3)CC2)n1 | < 4.52 | < 4.52 | < 4.52 | < 4.52 | < 4.52 | < 4.52 | < 4.52 | – | – | – | – | – | – | – | – | – | –
2 | CCNC(=O)c1cc(Nc2cc(C3CC3)[nH]n2)nc(N2CCN(Cc3ccc(S(=O)(=O)F)cc3)CC2)n1 | 5.58 | < 4.52 | < 4.52 | 4.74 | < 4.52 | < 4.52 | < 4.52 | – | – | – | – | – | – | – | – | – | –
3 | Cc1cc(Nc2cc(C(=O)NCCNC(=O)OC3CC/C=C/CCC3)nc(N3CCN(Cc4ccc(S(=O)(=O)F)cc4)CC3)n2)n[nH]1 (stereo not given) | < 4.52 | < 4.52 | < 4.52 | < 4.52 | < 4.52 | < 4.52 | < 4.52 | – | – | – | – | – | – | – | – | – | –
4 | C#CCNC(=O)c1cc(Nc2cc(C3CC3)[nH]n2)nc(N2CCN(Cc3ccc(S(=O)(=O)F)cc3)CC2)n1 | 5.39 | < 4.52 | < 4.52 | 5.14 | < 4.52 | < 4.52 | < 4.52 | 5.43 | < 4.52 | < 4.52 | 5.78 | 4.66 | < 4.52 | < 4.52 | < 4.52 | < 4.52 | –
5 | C#CCNC(=O)c1cc(Nc2cc(C)[nH]n2)nc(N2CCN(Cc3ccc(S(=O)(=O)F)cc3)CC2)n1 | < 4.52 | < 4.52 | < 4.52 | < 4.52 | < 4.52 | < 4.52 | < 4.52 | – | – | – | – | – | – | – | – | – | –
6 | O=C(NCCNC(=O)c1cc(Nc2cc(C3CC3)[nH]n2)nc(N2CCN(Cc3ccc(S(=O)(=O)F)cc3)CC2)n1)OC1CC/C=C/CCC1 (stereo not given) | < 4.52 | < 4.52 | < 4.52 | < 4.52 | < 4.52 | < 4.52 | < 4.52 | < 4.52 | < 4.52 | < 4.52 | 4.68 | < 4.52 | – | < 4.52 | < 4.52 | < 4.52 | < 4.52
